What was measured:
[1] = test system: DU-145 (Human prostate cancer); assay: MTT cytotoxicity assay, DU-145; format: cell-based; details: 50% cell proliferation inhibitory concentration after 48 h of compound treatment, compounds
Protocol: (§1) MTT assay was performed as described earlier. Cells were plated at a density of 1 × 10^4 cells/well in 100 µL Dulbecco’s Modified Eagle Medium (DMEM)/Minimum Essential Media (MEM) medium, supplemented with 10% FBS in 96-well plates for 24 h. After incubation, cells were treated with standard doxorubicin and test compounds for 48 h. After 48 h of treatment, 10 µL MTT (3-(4,5-dimethylthiazol-2 yl)-2,5-diphenyl tetrazolium bromide) (5 mg/mL) were added to each well and the plates were further incubated for 4 h. After 4 h, 100 µL DMSO was added to each well and absorbance at 570 nm wavelength was recorded spectrophotometrically.

A549 (Human lung cancer) = assay: MTT cytotoxicity assay, A549; format: cell-based; details: 50% cell proliferation inhibitory concentration after 48 h of compound treatment, compounds
Protocol: as §1

[2] = test system: HEK-293 (Normal cell line, Human embryonic kidney); assay: MTT cytotoxicity assay, HEK-293; format: cell-based; details: compounds
Protocol: as §1

[3] = test system: MCF-7 (Human breast cancer); assay: MTT cytotoxicity assay, MCF-7; format: cell-based; details: MCF7, 50% cell proliferation inhibitory concentration after 48 h of compound treatment, compounds
Protocol: as §1

[4] = test system: HeLa (Human cervical cancer); assay: MTT cytotoxicity assay, HeLa; format: cell-based; details: 50% cell proliferation inhibitory concentration after 48 h of compound treatment, compounds
Protocol: as §1

A549 cells [5] = assay: Annexin V-FITC assay for apoptosis; format: cell-based, human; details: A549, 24 h; for total apoptosis: control 1.12%
Protocol: A549 cells were seeded in six-well plates and incubated for 24 h. After incubation, cells were treated with doxorubicin at 2 µM and compound 21 at 1 and 2 µM concentrations and further incubated for 24 h. After 24 h treatment, cells were harvested by trypsinization. After harvesting, cells were washed with PBS at 5000 rpm. After washing, cells were stained with Annexin-V and propidium iodide using Annexin-V apoptosis detection kit (Sigma-Aldrich). Annexin V-FITC assay was performed as described earlier.

[6] = test system: Poly (ADP-ribose) polymerase (PARP); assay: Immunoblot assay for PARP cleavage; format: cell-based, human; details: A549, 21 at 1 and 2 µM for 48 h; doxorubicin 1 µM
Source text: (§2) Following treatments, cells were washed twice with PBS and lysed in 1× SDS sample buffer. Proteins were separated on 10% SDS-polyacrylamide gels and transferred onto nitrocellulose membranes. Membranes were washed twice with tween Tris-buffered saline before blocking nonspecific binding with 5% nonfat dry milk (Blotto, Santa Cruz Biotechnology, Dallas, TX, USA) or 3% bovine serum albumin. Anti-Poly ADP-ribose Polymerase (PARP) (11835238001-Roche) antibody, that detects total and cleaved PARP was used at 1:1000 dilutions, and membranes were incubated for 2 h at room temperature. Anti-Cyclin D1 (C7464, Sigma Aldrich) and anti-CDK4 (SAB140559, Sigma Aldrich) were detected similar to PARP protein. Membranes were washed three times, and detection was performed using horseradish peroxidase-conjugated secondary antibody as described previously.

CDK4 and Cyclin D1 = assay: Immunoblot assay for CDK4 and Cyclin D1; format: cell-based, human; details: A549, 21 at 1 and 2 µM for 48 h; doxorubicin 1 µM
Source text: as §2

A549 cells [7] = assay: Hoechst staining for apoptosis; format: cell-based, human; details: A549, 1 and 2 µM, 48 h
Protocol: A549 cells were seeded on cover slips and incubated for 24 h. After incubation, cells were treated with doxorubicin at 2 µM and compound 21 at 1 and 2 µM concentrations for 48 h. After 48 h treatment, Hoechst staining was performed using H33258 dye. Florescence images were captured by Olympus microscope using 10X lens.

A549 cells [8] = assay: Cell cycle analysis by flow cytometry; format: cell-based, human; details: A549, 24 h
Protocol: Flow cytometric analysis (FACS) was performed to evaluate the cell cycle arrest. A549 cells were seeded, incubated for 24 h and then treated with doxorubicin at 2 µM and compound 21 at 1 and 2 µM concentrations for 24 h. After that, cells were harvested and washed with phosphate buffered saline (PBS) followed by fixation in ice cold 70% ethanol. After fixation cells were incubated with RNase A (0.1 mg/mL) at 37 °C for 30 min and stained with propidium iodide (Sigma Aldrich, St. Louis, MO, USA) (50 μg/mL) for 30 min on ice in dark. Cell cycle analysis was performed by flow cytometry (Becton Dickinson FACS Caliber instrument).

human cancer cell lines = assay: MTT cytotoxicity assay, panel of cancer cell lines; format: cell-based; details: HeLa, MCF-7 and DU-145, range over the cell lines, read-out: IC50 on additional cancer cell lines
Protocol: as §1

caspase-3 = assay: Caspase-3 assay (fluorimetric, Ac-DEVD-AMC); format: cell-based, human; details: A549, 2 µM
Protocol: Following treatment, cell lysates were washed twice with phosphate-buffered saline and dissolved in lysis buffer (50 mM HEPES (pH 7.4) containing 5 mM CHAPS and 5 mM DTT) for 15 min on ice. Later, cells were centrifuged at 14,000× g for 15 min, under cold conditions, and collected the clear supernatant. The supernatant was added to assay buffer (20 mM HEPES (pH 7.4), 2 mM EDTA, 0.1% CHAPS, and 5 mM DTT) containing caspase 3 substrate (Ac-DEVD-AMC, 40 μM) in a final volume of 100 μL as described earlier. The incubation was performed for 1 h at 37 °C with readings recorded at 5-min intervals. Fluorescence released by AMC was measured at 360-nm and 460-nm excitation and emission wavelengths, respectively. Values were normalized to protein concentration and expressed as fold change of activity relative to DMSO control.

[9] = Homo sapiens, HEK293, 48 h, after 48 h of compound treatment
[10] = Homo sapiens, 2 µM, read-out: live (viable) cells (LL)

Compound C[C@@H]1C(=O)OC(CCCCCCCCCCCCC[C@@H](C)O)C1C(=O)O (stereo partly drawn) [compound 19, 18R-hydroxy-dihydroalloprotolichesterinic acid] has an IC50 [1] of 27 ± 2.92 µM, an IC50 (A549 (Human lung cancer)) of 20.2 ± 1.99 µM and an IC50 [2, 9] of 55.9 ± 1.55 µM. For the same compound, the IC50 [3] was 20 ± 0.74 µM and the IC50 [4] was 22.7 ± 0.97 µM.
With CC1=C(C(=O)O)[C@H](CCCCCCCCCCCCCC(C)O)OC1=O (stereo partly drawn) [compound 20, neuropogolic acid] the IC50 [1] was 26.1 ± 1.09 µM, the IC50 (A549 (Human lung cancer)) was 19.1 ± 3.86 µM and the IC50 [2, 9] was 113 ± 3.82 µM. For the same compound, the IC50 [3] was 22.3 ± 4.05 µM and the IC50 [4] was 23.6 ± 0.74 µM.
In the case of COc1cccc2c1C(=O)c1c(O)c3c(c(O)c1C2=O)C[C@@](O)(C(=O)CO)C[C@@H]3O[C@H]1C[C@H](N)[C@H](O)[C@H](C)O1 [Doxorubicin, doxorubicin, reference compound], the IC50 [1] is reported as 1.51 ± 0.84 µM, the IC50 (A549 (Human lung cancer)) is reported as 1.95 ± 0.97 µM and the “early apoptotic cells (LR)” value (A549 cells [5]; 2 µM) is reported as 22.3%. The “late apoptotic cells (UR)” value (A549 cells [5]; 2 µM) was 9.79%, the “necrotic cells (UL)” value (A549 cells [5]; 2 µM) was 0.12% and the viability at 2 µM (A549 cells [5]; [10]) was 67.8%. The IC50 [3] was 1.62 ± 0.36 µM, the “PARP cleavage (in words)” value [6] was “robust cleavage of PARP protein” and the IC50 [4] was 1.55 ± 1.32 µM. For the same compound, the “CDK4 and Cyclin D1 protein levels (in words)” value (CDK4 and Cyclin D1) was “accumulated”.
Compound CC(=O)C1=C(O)C=C2Oc3c(C(C)=O)c(O)c(C)c(O)c3C2(C)C1=O (single isomer, unassigned; (+)) [compound 22, (+)-usnic acid] has an IC50 [1] of 24.2 ± 0.99 µM, an IC50 (A549 (Human lung cancer)) of 13.8 ± 1.11 µM and an IC50 ([2]; Homo sapiens, HEK293, after 48 h of compound treatment) of 125 ± 1.98 µM. The IC50 [3] was 19.2 ± 2.05 µM and the IC50 [4] was 18.9 ± 2.06 µM.
For COc1cc(C)c(C(=O)Oc2cc(C)c(C(=O)O)c(O)c2C)c(O)c1C [compound 21, barbatic acid], the “Hoechst staining, nuclear morphology (in words)” value (A549 cells [7]) was “chromatin condensation and fragmented nuclei”, the IC50 [1] was 9.03 ± 2.11 µM and the IC50 (A549 (Human lung cancer)) was 1.78 ± 0.62 µM. The “early apoptotic cells (LR)” value (A549 cells [5]; 1 µM) was 7.68%, the “late apoptotic cells (UR)” value (A549 cells [5]; 1 µM) was 0.10% and the “necrotic cells (UL)” value (A549 cells [5]; 1 µM) was 0.00%. The total apoptosis (A549 cells [5]; 1 µM) was “about 7.78%”, the “early apoptotic cells (LR)” value (A549 cells [5]; 2 µM) was 9.05% and the “late apoptotic cells (UR)” value (A549 cells [5]; 2 µM) was 0.24%. The “necrotic cells (UL)” value (A549 cells [5]; 2 µM) was 0.07%, the total apoptosis (A549 cells [5]; 2 µM) was about 9.29% and the viability at 1 µM (A549 cells [5]; Homo sapiens, 1 µM, read-out: live (viable) cells (LL)) was 92.2%. It also gave a viability at 2 µM (A549 cells [5]; [10]) of 90.6%, an IC50 [2, 9] of over 100 µM and an IC50 ([2]; after 48 h of compound treatment) of 125 ± 2.65 µM. The IC50 [3] was 3.16 ± 0.88 µM, the “PARP cleavage (in words)” value [6] was “robust cleavage of PARP protein” and the IC50 [4] was 3.02 ± 0.11 µM. The “CDK4 and Cyclin D1 protein levels (in words)” value (CDK4 and Cyclin D1) was “accumulated”, the “cell accumulation in G0/G1 phase” value (A549 cells [8]; 1 µM) was 70.9% and the “cell accumulation in G0/G1 phase” value (A549 cells [8]; 2 µM) was 74.4%. The IC50 (human cancer cell lines) was 3.02 to 9.03 µM and the “caspase-3 activity (in words)” value (caspase-3) was “increased maximally”.

From article PMC6630668, “Comprehensive Analysis of Secondary Metabolites in Usnea longissima (Lichenized Ascomycetes, Parmeliaceae) Using UPLC-ESI-QTOF-MS/MS and Pro-Apoptotic Activity of Barbatic Acid” (Molecules, 2019)
